These results are taken from US20100099703A1, “PHENYLAMINO-SUBSTITUTED PIPERIDINE COMPOUNDS, THEIR PREPARATION AND USE AS MEDICAMENTS” (priority 2006, published 2010).

The structures appear in SMILES notation.

For this assay, the target named is T1, rat Y5 receptor (Rattus norvegicus, UniProt Q63634).
T1 construct: expressed in transfected cells; host or cells: C6 cells (membrane preparation)
T1 sequence (Q63634 1-445): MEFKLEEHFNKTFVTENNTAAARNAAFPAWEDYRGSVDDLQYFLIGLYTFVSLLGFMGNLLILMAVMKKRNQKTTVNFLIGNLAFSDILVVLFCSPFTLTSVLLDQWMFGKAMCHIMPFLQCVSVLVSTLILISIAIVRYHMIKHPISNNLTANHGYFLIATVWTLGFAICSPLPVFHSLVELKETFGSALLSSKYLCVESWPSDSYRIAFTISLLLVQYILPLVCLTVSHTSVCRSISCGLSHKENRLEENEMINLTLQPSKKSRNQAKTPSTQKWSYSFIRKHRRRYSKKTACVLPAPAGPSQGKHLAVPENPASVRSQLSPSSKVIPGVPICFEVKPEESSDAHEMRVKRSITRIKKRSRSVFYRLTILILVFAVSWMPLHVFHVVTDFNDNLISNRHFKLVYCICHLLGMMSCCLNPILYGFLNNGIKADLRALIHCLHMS
In words: Neuropeptide Y5 receptor binding ([125I]-PYY displacement, membranes of transfected C6 cells). The settings on record: radioligand [125I]-PYY 100 pM, C6 cells transfected with rat Y5 receptor; for inhibition at 1 µM: compound at 10^−6 M. The procedure:
Neuropeptide Y5 Receptor Binding Studies:
The methods used for membrane preparation and binding are similar to those described by Y. Hu, B. T. Bloomquist et al. in Y. Hu, B. T. Bloomquist et al., The Journal of Biological Chemistry, 1996, 271, 26315-26319 with modifications. Said literature description is herewith incorporated by reference and forms part of the disclosure. Cells C6 were transfected with the rat Y5 receptor. The cells were grown under standard culture conditions in 150 cm^2 dishes and they were harvested using a rubber scraper and 10 ml PBS. The cells from five dishes were collected and centrifuged 2.500 g for 5 min (4° C.). The pellet was washed by resuspending in 3 ml buffer (Tris-HCl 10 mM, pH 7.4), homogenized using a Potter S homogenizer, 10 strokes at 600 rpm and centrifuged 48.000 g for 20 min (4° C.). The pellet was resuspended in 8 ml membrane buffer (Tris-HCl 25 mM, NaCl 120 mM, KCl 5 mM, KH2PO4 1.2 mM, CaCl2 2.5 mM, MgSO4 1.2 mM, BSA 0.15 mg/ml, Bacitracine 0.5 mg/ml, pH 7.4) and rehomogenized using the Potter S, 10 strokes at 600 rpm. The protein concentration in the incubation was 40 μg/ml. The radioligand was [^125I]-PYY (100 pM) in a total incubation volume of 200 μl. Following incubation at 25° C. for 2 h, the reaction was stopped by addition of 5 ml ice-cold buffer (Tris-HCl 25 mM, NaCl 120 mM, KCl 5 mM, KH2PO4 1.2 mM, CaCl2 2.5 mM, MgSO4 1.2 mM, pH 7.4) and rapid filtration in a Harvester Brandell Cell using filters (Schleicher & Schuell GF 3362) pretreated for two hours with 0.5% polyethyleneimine. Filters were washed one time with 5 ml ice-cold buffer. The filters were placed into plastic scintilation vials and 5 ml scintilation cocktail Ecoscint H were added. The quantity of radioactivity present was determined in a Wallac Winspectral 1414 counter. Non specific binding was determined in the presence of 1 μM de pNPY. All binding assays were done in triplicate.

As to `O=C(CN1CCC(Nc2ccccc2O)CC1)Nc1cnc2ccccc2c1` [Example 1, 2-[4-(2-Hydroxy-phenylamino)-piperidin-1-yl]-N-quinolin-3-yl-acetamide], the inhibition at 1 µM is 5.6%.

`O=C(CN1CCC(Nc2ccccc2O)CC1)Nc1ccc(C(=O)c2ccccc2)cc1` [Example 2, N-(4-Benzoyl-phenyl)-2-[4-(2-hydroxy-phenylamino)-piperidin-1-yl]-acetamide]: the inhibition at 1 µM came to 62.5%.

`CCn1c2ccccc2c2cc(NC(=O)CN3CCC(Nc4ccccc4O)CC3)ccc21` [Example 3, N-(9-Ethyl-9H-carbazol-3-yl)-2-[4-(2-hydroxy-phenylamino)-piperidin-1-yl]-acetamide]: the inhibition at 1 µM stood at 97.8% and the IC50 worked out at 0.0661 µM.

For the compound `O=C(CN1CCC(Nc2ccccc2O)CC1)Nc1ccc(C2CCCCC2)cc1` [Example 4, N-(4-Cyclohexyl-phenyl)-2-[4-(2-hydroxy-phenylamino)-piperidin-1-yl]-acetamide], the inhibition at 1 µM amounted to 35.3%.

In the case of `O=C(CN1CCC(Nc2ccccc2O)CC1)Nc1ccc2ncccc2c1` [Example 5, 2-[4-(2-Hydroxy-phenylamino)-piperidin-1-yl]-N-quinolin-6-yl-acetamide], the inhibition at 1 µM was determined as 22.7%.

In the case of `O=C(CN1CCC(Nc2ccccc2O)CC1)Nc1ccc2c(c1)-c1ccccc1C2=O` [Example 6, 2-[4-(2-Hydroxy-phenylamino)-piperidin-1-yl]-N-(9-oxo-9H-fluoren-3-yl)-acetamide], the inhibition at 1 µM turned out to be 95% and the half-inhibitory concentration (IC50) came to 0.0575 µM.

Take `CC(=O)c1ccc(NC(=O)CN2CCC(Nc3ccccc3O)CC2)cc1` [Example 7, N-(4-Acetyl-phenyl)-2-[4-(2-hydroxy-phenylamino)-piperidin-1-yl]-acetamide]: the inhibition at 1 µM came to 14%.

As to `O=C(CN1CCC(Nc2ccccc2O)CC1)Nc1ccc2c(c1)CCCC2=O` [Example 9, 2-[4-(2-Hydroxy-phenylamino)-piperidin-1-yl]-N-(5-oxo-5,6,7,8-tetrahydro-naphthalen-2-yl)-acetamide], the inhibition at 1 µM was found to be 44.7%.

On to `CCn1c2ccccc2c2cc(NC(=O)CN3CCC(Nc4cccc(O)c4)CC3)ccc21` [Example 10, N-(9-Ethyl-9H-carbazol-3-yl)-2-[4-(3-hydroxy-phenylamino)-piperidin-1-yl]-acetamide], for which the inhibition at 1 µM was determined as 105% and the half-maximal inhibitory concentration (IC50) was 0.0346 µM.

For `O=C(CN1CCC(Nc2cccc(O)c2)CC1)Nc1ccc2c(c1)-c1ccccc1C2=O` [Example 11, 2-[4-(3-Hydroxy-phenylamino)-piperidin-1-yl]-N-(9-oxo-9H-fluoren-3-yl)-acetamide], the inhibition at 1 µM came to 76.9% and the IC50 stood at 0.0356 µM.

As for `CCN(CCO)c1ccc(NC(=O)CN2CCC(Nc3cccc(O)c3)CC2)cc1` [Example 12, N-{4-[Ethyl-(2-hydroxy-ethyl)-amino]-phenyl}-2-[4-(3-hydroxy-phenylamino)-piperidin-1-yl]-acetamide], the inhibition at 1 µM stood at 51.2%.

Turning to `O=C(CN1CCC(Nc2cccc(O)c2)CC1)Nc1ccc2ncccc2c1` [Example 13, 2-[4-(3-Hydroxy-phenylamino)-piperidin-1-yl]-N-quinolin-6-yl-acetamide], the inhibition at 1 µM worked out at 27.8%.

As to `CCn1c2ccccc2c2cc(NC(=O)CN3CCC(Nc4ccc(O)cc4)CC3)ccc21` [Example 15, N-(9-Ethyl-9H-carbazol-3-yl)-2-[4-(4-hydroxy-phenylamino)-piperidin-1-yl]-acetamide], the inhibition at 1 µM is 74.6%.

Take `O=C(CN1CCC(Nc2ccc(O)cc2)CC1)Nc1ccc2c(c1)-c1ccccc1C2=O` [Example 16, 2-[4-(4-Hydroxy-phenylamino)-piperidin-1-yl]-N-(9-oxo-9H-fluoren-3-yl)-acetamide]: the inhibition at 1 µM was 101%.

Take `CCn1c2ccccc2c2cc(NC(=O)CN3CCC(Nc4ccccc4OC)CC3)ccc21` [Example 17, N-(9-Ethyl-9H-carbazol-3-yl)-2-[4-(2-methoxy-phenylamino)-piperidin-1-yl]-acetamide]: the inhibition at 1 µM stood at 101% and the IC50 is 0.0469 µM.

With `COc1ccccc1NC1CCN(CC(=O)Nc2ccc3c(c2)-c2ccccc2C3=O)CC1` [Example 18, 2-[4-(2-Methoxy-phenylamino)-piperidin-1-yl]-N-(9-oxo-9H-fluoren-3-yl)-acetamide], the inhibition at 1 µM was 96.1%.

On to `COc1ccccc1NC1CCN(CC(=O)Nc2cnc3ccccc3c2)CC1` [Example 21, 2-[4-(2-Methoxy-phenylamino)-piperidin-1-yl]-N-quinolin-3-yl-acetamide], for which the inhibition at 1 µM worked out at 19.6%.

Consider `COc1ccccc1NC1CCN(CC(=O)Nc2ccc(C(=O)c3ccccc3)cc2)CC1` [Example 22, N-(4-Benzoyl-phenyl)-2-[4-(2-methoxy-phenylamino)-piperidin-1-yl]-acetamide], for which the inhibition at 1 µM is 55.7%.

As for `CCn1c2ccccc2c2cc(NC(=O)CN3CCC(Nc4cccc(OC)c4)CC3)ccc21` [Example 23, N-(9-Ethyl-9H-carbazol-3-yl)-2-[4-(3-methoxy-phenylamino)-piperidin-1-yl]-acetamide], the inhibition at 1 µM is 96.9%.

Consider `COc1cccc(NC2CCN(CC(=O)Nc3ccc4c(c3)-c3ccccc3C4=O)CC2)c1` [Example 24, 2-[4-(3-Methoxy-phenylamino)-piperidin-1-yl]-N-(9-oxo-9H-fluoren-3-yl)-acetamide], for which the inhibition at 1 µM worked out at 97.5%.

As for `CCN(CCO)c1ccc(NC(=O)CN2CCC(Nc3cccc(OC)c3)CC2)cc1` [Example 25, N-{4-[Ethyl-(2-hydroxy-ethyl)-amino]-phenyl}-2-[4-(3-methoxy-phenylamino)-piperidin-1-yl]-acetamide], the inhibition at 1 µM was found to be 51.6%.

For the compound `COc1cccc(NC2CCN(CC(=O)Nc3ccc(C(=O)c4ccccc4)cc3)CC2)c1` [Example 26, N-(4-Benzoyl-phenyl)-2-[4-(3-methoxy-phenylamino)-piperidin-1-yl]-acetamide], the inhibition at 1 µM was 37%.

For the compound `CCn1c2ccccc2c2cc(NC(=O)CN3CCC(Nc4ccc(OC)cc4)CC3)ccc21` [Example 27, N-(9-Ethyl-9H-carbazol-3-yl)-2-[4-(4-methoxy-phenylamino)-piperidin-1-yl]-acetamide], the inhibition at 1 µM is 91.1%.

As for `COc1ccc(NC2CCN(CC(=O)Nc3ccc4c(c3)-c3ccccc3C4=O)CC2)cc1` [Example 28, 2-[4-(4-Methoxy-phenylamino)-piperidin-1-yl]-N-(9-oxo-9H-fluoren-3-yl)-acetamide], the inhibition at 1 µM was determined as 97.3%.

Take `CCN(CCO)c1ccc(NC(=O)CN2CCC(Nc3ccc(OC)cc3)CC2)cc1` [Example 29, N-{4-[Ethyl-(2-hydroxy-ethyl)-amino]-phenyl}-2-[4-(4-methoxy-phenylamino)-piperidin-1-yl]-acetamide]: the inhibition at 1 µM turned out to be 69%.

Take `CCn1c2ccccc2c2cc(NC(=O)CN3CCC(Nc4ccccc4)CC3)ccc21` [Example 32, N-(9-Ethyl-9H-carbazol-3-yl)-2-(4-phenylamino-piperidin-1-yl)-acetamide]: the inhibition at 1 µM is 80.7% and the IC50 stood at 0.0237 µM.

Consider `O=C(CN1CCC(Nc2ccccc2)CC1)Nc1ccc2c(c1)-c1ccccc1C2=O` [Example 33, N-(9-Oxo-9H-fluoren-3-yl)-2-(4-phenylamino-piperidin-1-yl)-acetamide], for which the inhibition at 1 µM stood at 108% and the half-maximal inhibitory concentration (IC50) was found to be 0.102 µM.

On to `CCN(CCO)c1ccc(NC(=O)CN2CCC(Nc3ccccc3)CC2)cc1` [Example 34, N-{4-[Ethyl-(2-hydroxy-ethyl)-amino]-phenyl}-2-(4-phenylamino-piperidin-1-yl)-acetamide], for which the inhibition at 1 µM was determined as 72.6%.

Turning to `O=C(CN1CCC(Nc2ccccc2)CC1)Nc1ccc2c(c1)CCCC2=O` [Example 35, N-(5-Oxo-5,6,7,8-tetrahydro-naphthalen-2-yl)-2-(4-phenylamino-piperidin-1-yl)-acetamide], the inhibition at 1 µM stood at 67.1%.

A word on the inhibition: it is the drop in the measured response relative to a control, in per cent. The IC50 is the concentration that gives 50% inhibition.
